The values below come from ChEMBL document CHEMBL4811242, “Mechanistic selectivity investigation and 2D-QSAR study of some new antiproliferative pyrazoles and pyrazolopyridines as potential CDK2 inhibitors” (Eur J Med Chem, 2021).

Series [1] deals with HepG2. Briefly: Cytotoxicity against human HepG2 cells.
Series [2] deals with MCF7. Put plainly: Cytotoxicity against human MCF7 cells.
The test system of series [3] is HepG2. Briefly: Induction of apoptosis in human HepG2 cells assessed as early apoptotic cells at IC50 after 48 hrs by Annexin V-FITC/propidium iodide staining based flow cytometric analysis (reference value: 0.38 %). In kind it is functional. (Flow cytometry measures light scatter and fluorescence of single cells or particles in a stream.)
Series [4] can be described thus: Cytotoxicity against human THLE2 cells assessed as reduction in cell viability by MTT assay. Format: cell-based, THLE-2. For orientation: Tetrazolium dyes change colour on reduction, which living cells bring about.
The subject of series [5] is HepG2. Put plainly: Induction of apoptosis in human HepG2 cells assessed as total apoptotic cells at IC50 after 48 hrs by Annexin V-FITC/propidium iodide staining based flow cytometric analysis (reference value: 1.52 %). Format: functional.
Series [6] has as its system HepG2. Briefly: Induction of cell cycle arrest in human HepG2 cells assessed as accumulation at S phase at IC50 after 48 hrs by propidium iodide staining based Flow cytometric analysis (reference value: 45.37%). In kind it is functional.
For another series, the target named is CDK2/Cyclin A2 (Homo sapiens, UniProt P24941). Put plainly: Inhibition of CDK2/Cyclin A2 (unknown origin) after 10 mins by ADP-Glo reagent based assay. In kind it is protein-complex assay. Background: ADP-Glo turns the ADP formed in a reaction into a luminescent signal.
The target in series [7] is Cyclin-dependent kinase 7/ cyclin H (Homo sapiens, UniProt P50613). Briefly: Inhibition of CDK7/cyclin H (unknown origin). In kind it is protein-complex assay.
Series [8] can be described thus: Selectivity index, ratio of CC50 for human THLE2 cells to IC50 for human HepG2 cells. To be noted: THLE2 cells and HepG2 cells, read-out: Ratio CC50/IC50. Format: toxicity.
The target in series [9] is Cyclin-dependent kinase 4/cyclin D1 (Homo sapiens, UniProt P11802). Briefly: Inhibition of CDK4/cyclin D1 (unknown origin). In kind it is protein-complex assay.
For series [10], the system named is HepG2. Briefly: Induction of cell cycle arrest in human HepG2 cells assessed as accumulation at pre-G1 phase at IC50 after 48 hrs by propidium iodide staining based Flow cytometric analysis (reference value: 1.52%). In kind it is functional.
The subject of series [11] is HepG2. Put plainly: Induction of cell cycle arrest in human HepG2 cells assessed as accumulation at G0/G1 phase at IC50 after 48 hrs by propidium iodide staining based Flow cytometric analysis (reference value: 47.29%). Format: functional.
The subject of series [12] is HepG2. Put plainly: Induction of cell cycle arrest in human HepG2 cells assessed as accumulation at G2/M phase at IC50 after 48 hrs by propidium iodide staining based Flow cytometric analysis (reference value: 7.34%). In kind it is functional.
In series [13] the test system is HepG2. Put plainly: Induction of apoptosis in human HepG2 cells assessed as fold increase in caspase-3 activation at IC50 by ELISA. In kind it is functional.
Series [14] concerns HepG2. Briefly: Induction of apoptosis in human HepG2 cells assessed as caspase-3 concentration at IC50 by ELISA (reference value: 0.03822 +/- 0.0029 ng/ml). Format: functional.
The test system of series [15] is HepG2. Briefly: Antiproliferative activity against human HepG2 cells assessed as inhibition of cell growth after 48 hrs by MTT assay. In kind it is functional, cell-based. To be noted: HepG2, 48 h.
The subject of series [16] is HepG2. Put plainly: Induction of apoptosis in human HepG2 cells assessed as late apoptotic cells at IC50 after 48 hrs by Annexin V-FITC/propidium iodide staining based flow cytometric analysis (reference value: 0.18 %). Format: functional.
In series [17] the target is Cyclin-dependent kinase 1/cyclin B1 (Homo sapiens, UniProt P06493). Briefly: Inhibition of CDK1/cyclin B (unknown origin). Format: protein-complex assay.
The subject of series [18] is MCF7. Put plainly: Antiproliferative activity against human MCF7 cells assessed as inhibition of cell growth after 48 hrs by MTT assay. Format: functional, cell-based. The settings on record: MCF7, 48 h.
The nature of series [19]: Cytotoxicity against human MCF10A cells assessed as reduction in cell viability by MTT assay. Format: cell-based, MCF-10A.
Series [20] in a line: Selectivity index, ratio of CC50 for human MCF10A cells to IC50 for human MCF7 cells. In kind it is toxicity. To be noted: MCF10A cells and MCF7 cells, read-out: Ratio CC50/IC50.

Sequence of Cyclin-dependent kinase 7/ cyclin H (P51946 whole entry): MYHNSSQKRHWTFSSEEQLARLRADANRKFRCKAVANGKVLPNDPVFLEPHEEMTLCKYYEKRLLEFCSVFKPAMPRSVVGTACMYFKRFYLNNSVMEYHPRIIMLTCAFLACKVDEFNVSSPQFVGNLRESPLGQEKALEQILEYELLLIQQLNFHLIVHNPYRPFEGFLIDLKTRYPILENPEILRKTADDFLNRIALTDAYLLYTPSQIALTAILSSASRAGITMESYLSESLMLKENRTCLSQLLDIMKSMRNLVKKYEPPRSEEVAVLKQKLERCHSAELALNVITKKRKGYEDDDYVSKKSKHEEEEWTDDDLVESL
Sequence of Cyclin-dependent kinase 7/ cyclin H (P50613 whole entry): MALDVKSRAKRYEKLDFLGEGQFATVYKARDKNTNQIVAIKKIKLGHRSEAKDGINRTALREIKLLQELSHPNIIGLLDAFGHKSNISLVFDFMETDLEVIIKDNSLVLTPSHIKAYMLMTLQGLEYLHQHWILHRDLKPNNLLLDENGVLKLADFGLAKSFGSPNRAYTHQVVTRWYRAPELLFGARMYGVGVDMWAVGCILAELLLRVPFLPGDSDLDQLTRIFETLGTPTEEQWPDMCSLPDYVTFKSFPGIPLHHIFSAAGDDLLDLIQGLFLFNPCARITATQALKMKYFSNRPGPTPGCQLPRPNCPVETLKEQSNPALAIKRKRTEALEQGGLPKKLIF
Sequence of Cyclin-dependent kinase 1/cyclin B1 (P06493 whole entry): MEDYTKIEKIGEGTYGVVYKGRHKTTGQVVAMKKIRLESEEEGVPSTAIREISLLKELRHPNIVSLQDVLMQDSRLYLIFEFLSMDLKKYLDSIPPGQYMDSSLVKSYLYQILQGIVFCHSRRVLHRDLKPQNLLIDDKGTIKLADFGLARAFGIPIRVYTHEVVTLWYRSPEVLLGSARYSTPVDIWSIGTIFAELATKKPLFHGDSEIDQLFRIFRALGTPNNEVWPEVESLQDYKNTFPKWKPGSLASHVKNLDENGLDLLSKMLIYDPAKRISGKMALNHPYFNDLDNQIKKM
Sequence of Cyclin-dependent kinase 1/cyclin B1 (P14635 whole entry, further chain): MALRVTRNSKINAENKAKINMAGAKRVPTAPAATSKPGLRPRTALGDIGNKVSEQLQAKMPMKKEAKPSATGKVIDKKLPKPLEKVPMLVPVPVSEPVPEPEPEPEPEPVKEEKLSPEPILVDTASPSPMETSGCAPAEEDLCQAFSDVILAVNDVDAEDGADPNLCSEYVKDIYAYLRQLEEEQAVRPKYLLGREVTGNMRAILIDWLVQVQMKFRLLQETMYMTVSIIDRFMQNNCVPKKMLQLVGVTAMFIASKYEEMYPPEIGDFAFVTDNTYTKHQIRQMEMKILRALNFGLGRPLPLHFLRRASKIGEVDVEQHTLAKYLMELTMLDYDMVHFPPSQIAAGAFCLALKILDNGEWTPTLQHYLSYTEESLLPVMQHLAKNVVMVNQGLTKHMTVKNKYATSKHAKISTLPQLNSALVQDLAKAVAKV
Sequence of Cyclin-dependent kinase 4/cyclin D1 (P11802 whole entry): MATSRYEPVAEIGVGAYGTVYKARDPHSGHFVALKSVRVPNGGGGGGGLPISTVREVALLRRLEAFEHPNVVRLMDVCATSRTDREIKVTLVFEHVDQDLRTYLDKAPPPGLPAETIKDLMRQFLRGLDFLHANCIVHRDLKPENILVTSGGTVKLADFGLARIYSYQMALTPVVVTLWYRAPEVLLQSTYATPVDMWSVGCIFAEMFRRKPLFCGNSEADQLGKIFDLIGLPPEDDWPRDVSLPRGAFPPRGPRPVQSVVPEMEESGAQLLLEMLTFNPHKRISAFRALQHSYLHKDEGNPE
Sequence of Cyclin-dependent kinase 4/cyclin D1 (P24385 whole entry, further chain): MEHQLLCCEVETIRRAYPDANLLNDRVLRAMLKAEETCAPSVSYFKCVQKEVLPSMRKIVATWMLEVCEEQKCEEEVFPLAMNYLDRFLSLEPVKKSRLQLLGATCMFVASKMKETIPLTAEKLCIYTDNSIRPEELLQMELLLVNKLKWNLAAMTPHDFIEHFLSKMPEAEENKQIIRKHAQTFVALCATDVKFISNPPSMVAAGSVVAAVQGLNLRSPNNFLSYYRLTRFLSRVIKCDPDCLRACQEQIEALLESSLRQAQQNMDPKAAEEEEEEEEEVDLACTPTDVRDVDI

As a reminder, the IC50 is the midpoint of a concentration-inhibition curve. As for `CC(C)c1cnn2c(NCc3ccccc3)cc(N[C@@H](CO)[C@H](O)CO)nc12`, the IC50 with HepG2 [1] was determined as 1000 nM; with MCF7 [2], 300 nM.
Broadly, the CC50 is the concentration giving 50% cytotoxicity. As a reminder, the Ki is a measure of affinity in units of concentration, obtained from inhibition or displacement. Read a low Ki as higher affinity. With `COc1ccc(-c2nc3c(c(-c4ccccc4)nn3-c3ccccc3)c(-c3ccc(N4CCN(C)CC4)cc3)c2C#N)cc1`, the Activity in the series on HepG2 [3] came out at 6.07%; in the series with HepG2 [5], 22.2%; in the series with HepG2 [6], 48.36%; in the series with HepG2 [10], 22.15%; with HepG2 [11], 48.02%; in the series on HepG2 [12] it was 3.62%. The Activity in the series with HepG2 [14] was 0.3714 ng/mL; in the series with HepG2 [16] it was 11.17%. Besides, the CC50 in series [4] turned out to be 37500 nM. The IC50 against CDK2/Cyclin A2 was 66.5 nM; in series [7] it was 225 nM; in series [9], 104000 nM; with HepG2 [15], 1330 nM; in series [17], 209 nM; with MCF7 [18] it was 2650 nM. The Ki was 40 nM on CDK2/Cyclin A2, 144 nM in [7], 56900 nM in series [9] and 127 nM in series [17]. For the same compound, the selectivity ratio in series [8] was found to be 28.2. Further, the “fold change (FC)” value in the series with HepG2 [13] came to 10.
As for `Fc1ccc(-c2ccnc3c2c(-c2ccccc2)nn3-c2ccccc2)cc1`, the Activity in the series with HepG2 [3] is reported as 6.15%; with HepG2 [5], 32.19%; in the series on HepG2 [6], 23.89%; with HepG2 [10], 32.19%; in the series with HepG2 [11], 38.47%; in the series with HepG2 [12] it was 37.64%. Also, the Activity came out at 0.3872 ng/mL in the series with HepG2 [14] and 17.43% with HepG2 [16]. Moreover, the CC50 worked out at 19700 nM in series [4] and 28300 nM in series [19]. Also, the selectivity ratio was determined as 18 in series [20] and 12.5 in [8]. The IC50 amounted to 41.5 nM on CDK2/Cyclin A2; 1990 nM in series [7]; 6920 nM in series [9]; 1570 nM with HepG2 [15]; 1350 nM in series [17]; 1570 nM with MCF7 [18]. For the same compound, the Ki on CDK2/Cyclin A2 was 25 nM; in series [7], 1270 nM; in series [9] it was 3780 nM; in [17] it was 823 nM. The “fold change (FC)” value in the series with HepG2 [13] came out at 10.
